Reference: patent US20150315218A1, “SALTS OF PRODRUGS OF PIPERAZINE AND SUBSTITUTED PIPERIDINE ANTIVIRAL AGENTS” (Bristol-Myers Squibb Company, priority 2004, published 2015)

Key:
[1] = IV and PO pharmacokinetic studies of prodrug salts (Iab, Ibb, Icb) in the dog, with historical parent data; assay type: in vivo, beagle dogs; conditions: plasma; for half-life: read-out: T1/2 (converted); for concentration at 24 h / concentration at 24 hr: read-out: C-24 hr; for AUC: read-out: AUCtot; for Cmax: read-out: Cmax; for MRT: read-out: MRT; for Vd: read-out: Vdss
Description: The IV and PO studies of Iab were conducted in a crossover fashion in three male beagle dogs (11±1.1 kg, Marshall Farms USA Inc., North Rose, N.Y.). There was a two-week washout period between the IV and PO studies.
In the IV study, Iab was infused via the cephalic vein at 1.2 mg/kg (free acid, or 0.95 mg/kg of IVa equivalent) over 5 min at a constant rate of 0.1 mL/kg/min. The concentration of the dosing solution was 2.4 mg/mL, and the dosing volume was 0.5 mL/kg. Serial blood samples were collected from the femoral artery before dosing and at 5, 10, 15, 30, 45 min, 1, 2, 4, 6, 8 and 24 hr after dosing.
In the PO study, the dogs were fasted overnight before dosing. Iab was administered by oral gavage at 6.6 mg/kg (free acid, or 5.2 mg/kg of IVa equivalent). The concentration of the dosing solution was 13.2 mg/mL, and the dosing volume was 0.5 mL/kg. Serial blood samples were collected before dosing and at 15, 30, 45 min, 1, 2, 4, 6, 8 and 24 hr after dosing.
The IV and PO studies of Ibb were conducted in male beagle dogs (10±0.78 kg, Marshall Farms USA Inc., North Rose, N.Y.). Three dogs were used in each study. Of the three dogs, two same dogs were used for both IV and PO studies. There was a two-week washout period between the IV and PO studies.
The concentration of the dosing solution was 2.6 mg/mL, and the dosing volume was 0.5 mL/kg. Serial blood samples were collected from the femoral artery before dosing and at 5, 10, 15, 30, 45 min, 1, 2, 4, 6, 8 and 24 hr after dosing.
In the PO study, the dogs were fasted overnight before dosing. […] The concentration of the dosing solution was 7.0 mg/mL, and the dosing volume was 1 mL/kg. Serial blood samples were collected before dosing and at 15, 30, 45 min, 1, 2, 4, 6, 8 and 24 hr after dosing.
The IV and PO studies of Icb were conducted in a crossover fashion in three male beagle dogs (12±2.8 kg, Marshall Farms USA Inc., North Rose, N.Y.). There was a two-week washout period between the IV and PO studies.
In the IV study, Icb was infused via the cephalic vein at 1.3 mg/kg (free acid, or 1.0 mg/kg of IVe equivalent) over 5 min at a constant rate of 0.1 mL/kg/min. The concentration of the dosing solution was 2.6 mg/mL, and the dosing volume was 0.5 mL/kg. Serial blood samples were collected from the femoral artery before dosing and at 5, 10, 15, 30, 45 min, 1, 2, 4, 6, 8 and 24 hr after dosing.
In the PO study, the dogs were fasted overnight before dosing. […] The concentration of the dosing solution was 12 mg/mL, and the dosing volume was 0.5 mL/kg. Serial blood samples were collected before dosing and at 15, 30, 45 min, 1, 2, 4, 6, 8 and 24 hr after dosing.

[2] = IV and PO pharmacokinetic studies of prodrug salts (Iab, Ibb, Icb) in the monkey, with historical parent data; assay type: in vivo, cynomolgus monkeys; conditions: for AUC: read-out: AUCtot; for MRT: read-out: MRT; for half-life: read-out: T1/2 (converted); for Vd: read-out: Vdss; for Cmax: read-out: Cmax
Description: The IV and PO studies of Iab were conducted in a crossover fashion in three male cynomolgus monkeys (11±1.2 kg, Charles River Biomedical Research Foundation, Houston, Tex.). There was a two-week washout period between the IV and PO studies.
In the IV study, Iab was infused via the femoral vein at 1.3 mg/kg (free acid, or 1.1 mg/kg of IVa equivalent) over 5 min at a constant rate of 0.1 mL/kg/min. The concentration of the dosing solution was 2.6 mg/mL, and the dosing volume was 0.5 mL/kg. Serial blood samples were collected from the femoral artery before dosing and at 5, 10, 15, 30, 45 min, 1, 2, 4, 6, 8 and 24 hr after dosing.
In the PO study, the monkeys were fasted overnight before dosing. Iab was administered by oral gavage at 7.1 mg/kg (free acid, or 5.6 mg/kg of IVa equivalent). The concentration of the dosing solution was 14.2 mg/mL, and the dosing volume was 0.5 mL/kg. Serial blood samples were collected before dosing and at 15, 30, 45 min, 1, 2, 4, 6, 8 and 24 hr after dosing.
The IV and PO studies of Ibb were conducted in a crossover fashion in three male cynomolgus monkeys (9.9±2.4 kg, Charles River Biomedical Research Foundation, Houston, Tex.). There was a two-week washout period between the IV and PO studies.
The concentration of the dosing solution was 2.7 mg/mL, and the dosing volume was 0.5 mL/kg. Serial blood samples were collected from the femoral artery before dosing and at 5, 10, 15, 30, 45 min, 1, 2, 4, 6, 8 and 24 hr after dosing.
In the PO study, the monkeys were fasted overnight before dosing. […] The concentration of the dosing solution was 5.8 mg/mL, and the dosing volume was 1 mL/kg. Serial blood samples were collected before dosing and at 15, 30, 45 min, 1, 2, 4, 6, 8 and 24 hr after dosing.
The IV and PO studies of Icb were conducted in a crossover fashion in three male cynomolgus monkeys (10±1.6 kg, Charles River Biomedical Research Foundation, Houston, Tex.). There was a two-week washout period between the IV and PO studies.
The concentration of the dosing solution was 2.8 mg/mL, and the dosing volume was 0.5 mL/kg. Serial blood samples were collected from the femoral artery before dosing and at 5, 10, 15, 30, 45 min, 1, 2, 4, 6, 8 and 24 hr after dosing.
In the PO study, the monkeys were fasted overnight before dosing. […] The concentration of the dosing solution was 9.8 mg/mL, and the dosing volume was 0.5 mL/kg. Serial blood samples were collected before dosing and at 15, 30, 45 min, 1, 2, 4, 6, 8 and 24 hr after dosing.

[3] = beagle, historical parent, PO 5 mg/kg, read-out: Bioavailability (%)
[4] = beagle, historical parent, PO 5 mg/kg, read-out: Tmax (hr), PO
[5] = male, beagle, oral prodrug, read-out: Bioavailability (%) of parent from prodrug
[6] = male, beagle, parent after oral prodrug (~5 mg/kg parent equivalent), read-out: Tmax (hr), PO
[7] = po, 5 mg/kg, read-out: Bioavailability
[8] = cynomolgus monkey, plasma, iv, 1 mg/kg
[9] = cynomolgus monkey, plasma, oral, 5 mg/kg, read-out: C-24 hr
[10] = cynomolgus monkey, plasma, po, 5 mg/kg
[11] = cynomolgus monkey, plasma, monkey, historical parent, PO 5 mg/kg, read-out: Bioavailability (%)
[12] = cynomolgus monkey, plasma, monkey, historical parent, PO 5 mg/kg, read-out: Tmax (hr), PO
[13] = male, cynomolgus monkey, plasma, monkey, oral prodrug, read-out: Bioavailability (%) of parent from prodrug
[14] = male, cynomolgus monkey, plasma, monkey, parent after oral prodrug (~4-6 mg/kg parent equivalent), read-out: Tmax (hr), PO
[15] = male, cynomolgus monkey, plasma, po, 4.9 mg/kg

Structure (SMILES)	bioavailability [1, 3]	Tmax [1, 4]	bioavailability [1, 5]	Tmax [1, 6]	AUC ([1]; iv, 1 mg/kg)	MRT ([1]; iv, 1 mg/kg)	Vd ([1]; iv, 1 mg/kg)	AUC ([1]; po, 5 mg/kg)	bioavailability [1, 7]	Cmax ([1]; po, 5 mg/kg)	Tmax ([1]; po, 5 mg/kg, read-out: Tmax)	AUC [2, 8]	MRT [2, 8]	Vd [2, 8]	AUC [2, 10]	Cmax [2, 10]	bioavailability [2, 11]	Tmax [2, 12]	bioavailability [2, 13]	Tmax [2, 14]	also measured
O=C(C(=O)N1CCN(C(=O)c2ccccc2)CC1)c1c[nH]c2c(-n3ccnn3)ncc(F)c12 [IVb]	179%	0.5 h	310%	0.4 h	3.8 µM·h	1.8 h	1.1 L/kg	30 ± 11 µM·h	179 ± 56%	7700 ± 710 nM	0.5 ± 0.25 h	10 ± 1.2 µM·h	5.6 ± 6.3 h	1.2 ± 1.4 L/kg	24 µM·h	4200 nM	49%	2.5 h	187%	1.5 h	half-life ([1]; male, beagle, iv, […]): 2 ± 0.21 h; bioavailability ([1]; male, beagle, oral, 7 mg/kg, read-out: Bioavailability): 310%; concentration at 24 h ([1]; male, beagle, oral, 7 mg/kg): 37 ± 26 nM; AUC ([1]; male, beagle, po, 7 mg/kg): 66 ± 17 µM·h; Cmax ([1]; male, beagle, po, 7 mg/kg): 20000 ± 2400 nM; half-life ([1]; male, beagle, po, 7 mg/kg): 2.6 ± 0.21 h; Tmax ([1]; male, beagle, po, 7 mg/kg, read-out: Tmax): 0.4 ± 0.13 h; clearance ([1]; iv, 1 mg/kg, read-out: CLtot): 9.8 mL/min/kg; half-life ([1]; iv, 1 mg/kg): 1.6 h; concentration at 24 h ([1]; oral, 5 mg/kg): 34 nM; half-life ([1]; po, 5 mg/kg): 2.7 ± 0.4 h; clearance ([2]; cynomolgus monkey, plasma, iv, 1 mg/kg, read-out: CLtot): 3.7 ± 0.43 mL/min/kg; half-life [2, 8]: 19 ± 20 h; concentration at 24 h [2, 9]: 240 nM; half-life [2, 10]: 11 h; half-life ([2]; male, cynomolgus monkey, plasma, iv, […]): 6.5 ± 2.4 h; bioavailability ([2]; male, cynomolgus monkey, plasma, oral, […], read-out: Bioavailability): 187%; half-life ([2]; male, cynomolgus monkey, plasma, po, […]): 4.1 ± 1.1 h; Tmax ([2]; male, cynomolgus monkey, plasma, po, […], read-out: Tmax): 1.5 ± 0.87 h
COc1cnc(-n2cnc(C)n2)c2[nH]cc(C(=O)C(=O)N3CCN(C(=O)c4ccccc4)CC3)c12 [IVc]	89%	1.3 h	104%	0.58 h	14 ± 2.5 µM·h	6.3 ± 1.9 h	0.93 ± 0.14 L/kg	63 ± 2.4 µM·h	89 ± 12%	9600 ± 870 nM	1.3 ± 0.58 h	5 ± 1 µM·h	0.87 ± 0.085 h	0.4 ± 0.097 L/kg	14 ± 4 µM·h	4200 ± 2600 nM	64%	2.3 h	122%	0.92 h	AUC ([1]; male, beagle, iv, 1.28 mg/kg): 9.8 ± 3.6 µM·h; bioavailability ([1]; male, beagle, oral, 6.05 mg/kg, read-out: Bioavailability): 104%; concentration at 24 hr ([1]; male, beagle, oral, 6.05 mg/kg): 220 ± 160 nM; AUC ([1]; male, beagle, po, 6.05 mg/kg): 72 ± 27 µM·h; Cmax ([1]; male, beagle, po, 6.05 mg/kg): 16000 ± 3900 nM; Tmax ([1]; male, beagle, po, 6.05 mg/kg, read-out: Tmax): 0.58 ± 0.38 h; concentration at 24 hr ([1]; oral, 5 mg/kg): 150 ± 27 nM; concentration at 24 hr [2, 9]: 17 ± 11 nM; bioavailability ([2]; male, cynomolgus monkey, plasma, oral, 4.9 mg/kg, read-out: Bioavailability): 122%; concentration at 24 hr ([2]; male, cynomolgus monkey, plasma, oral, 4.9 mg/kg, read-out: C-24 hr): 7 ± 2 nM; AUC [2, 15]: 24 ± 4.6 µM·h; Cmax [2, 15]: 9500 ± 1200 nM; Tmax ([2]; male, cynomolgus monkey, plasma, po, 4.9 mg/kg, read-out: Tmax): 0.92 ± 0.14 h; Tmax ([2]; monkey, PO IVc 5 mg/kg, historical IVc): 2.3 ± 1.5 h
